According to the supplement of paper PMC10307832:

What was measured:
Experiment in all cases: relative viability (nuclei count vs DMSO), 5 days (fraction); higher = more cells survive
[1] = compound: COc1cc2ncn(-c3cc(OCc4ccccc4C(F)(F)F)c(C(N)=O)s3)c2cc1OC + COc1cccc2cc(-c3nc([C@H]4CC[C@H](C(=O)O)CC4)n4ncnc(N)c34)[nH]c12 [OSI-027] (partner 0.5 µM)
Procedure, shortened: (§1)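 One day after seeding in 1536-well plates, lung cancer cell lines were dosed by pin tool. Dosing was either single-drug or a fixed anchor-drug dose plus five library-drug doses (not always all listed) in √10 steps. After 5 days, nuclei were stained in one fix-and-stain step and counted on 4× images, and relative viability is the nuclei count of treated wells over that of vehicle wells, given as the median of duplicate plates.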

[2] = compound: COc1cc2ncn(-c3cc(OCc4ccccc4C(F)(F)F)c(C(N)=O)s3)c2cc1OC + CS(=O)(=O)CCNCc1ccc(-c2ccc3ncnc(Nc4ccc(OCc5cccc(F)c5)c(Cl)c4)c3c2)o1 [Lapatinib] (partner 2 µM)
Procedure, shortened: as §1

[3] = compound: COc1cc2ncn(-c3cc(OCc4ccccc4C(F)(F)F)c(C(N)=O)s3)c2cc1OC + CCNC(=O)c1noc(-c2cc(C(C)C)c(O)cc2O)c1-c1ccc(CN2CCOCC2)cc1 [Luminespib] (partner 0.01 µM)
Procedure, shortened: as §1

[4] = compound: COc1cc2ncn(-c3cc(OCc4ccccc4C(F)(F)F)c(C(N)=O)s3)c2cc1OC + C[C@]1(O)C[C@@H](c2nc(-c3ccc4ccc(-c5ccccc5)nc4c3)c3c(N)nccn32)C1 [Linsitinib] (partner 1 µM)
Procedure, shortened: as §1

| Cell Line | relative viability ([1]; first compound 0.05 µM) | relative viability ([1]; first compound 0.1581 µM) | relative viability ([1]; first compound 0.5 µM) | relative viability ([1]; first compound 1.581 µM) | relative viability ([1]; first compound 5 µM) | relative viability ([2]; first compound 0.05 µM) | relative viability ([2]; first compound 0.1581 µM) | relative viability ([2]; first compound 0.5 µM) | relative viability ([2]; first compound 1.581 µM) | relative viability ([2]; first compound 5 µM) | relative viability ([3]; first compound 0.05 µM) | relative viability ([3]; first compound 0.1581 µM) | relative viability ([3]; first compound 0.5 µM) | relative viability ([3]; first compound 1.581 µM) | relative viability ([3]; first compound 5 µM) | relative viability ([4]; first compound 0.05 µM) | relative viability ([4]; first compound 0.1581 µM) | relative viability ([4]; first compound 0.5 µM) | relative viability ([4]; first compound 1.581 µM) | relative viability ([4]; first compound 5 µM) |
| --- | --- | --- | --- | --- | --- | --- | --- | --- | --- | --- | --- | --- | --- | --- | --- | --- | --- | --- | --- | --- |
| A-427 | 0.54 | 0.339 | 0.432 | 0.158 | 0.114 | 1.02 | 1.12 | 1 | 0.418 | 0.116 | 0.998 | 0.973 | 0.617 | 0.246 | 0.114 | 1.14 | 1.15 | 1.03 | 0.566 | 0.179 |
| LCLC-97TM1 | 0.529 | 0.538 | 0.301 | 0.195 | 0.175 | 0.802 | 0.893 | 0.343 | 0.175 | 0.161 | 0.757 | 0.719 | 0.415 | 0.167 | 0.197 | 0.203 | 0.182 | 0.122 | 0.141 | 0.115 |
| HCC-15 | 0.713 | 0.635 | 0.269 | 0.127 | 0.104 | 0.861 | 0.731 | 0.602 | 0.135 | 0.114 | 0.312 | 0.291 | 0.149 | 0.101 | 0.0855 | 0.865 | 0.828 | 0.557 | 0.14 | 0.13 |
| NCI-H650 | 0.503 | 0.63 | 0.383 | 0.213 | 0.189 | 0.903 | 1.2 | 0.531 | 0.171 | 0.247 | 0.748 | 0.759 | 0.632 | 0.118 | 0.37 | 0.896 | 1.17 | 0.505 | 0.118 | 0.171 |
| UMC-11 | 0.469 | 0.34 | 0.147 | 0.169 | 0.14 | 0.991 | 0.917 | 0.348 | 0.195 | 0.136 | 0.974 | 0.722 | 0.128 | 0.161 | 0.145 | 0.962 | 0.912 | 0.274 | 0.152 | 0.136 |
| NCI-H1651 | 0.762 | 0.737 | 0.594 | 0.145 | 0.0994 | 0.916 | 0.96 | 0.365 | 0.103 | 0.108 | 1.15 | 0.858 | 0.36 | 0.137 | 0.109 | 1 | 1.14 | 0.528 | 0.117 | 0.0945 |
| NCI-H1792 | 0.815 | 0.661 | 0.315 | 0.269 | 0.251 | 0.935 | 0.834 | 0.868 | 0.24 | 0.0845 | 0.509 | 0.397 | 0.339 | 0.208 | 0.185 | 0.517 | 0.531 | 0.301 | 0.216 | 0.148 |
| NCI-H2023 | 0.323 | 0.391 | 0.185 | 0.0955 | 0.0617 | 0.936 | 0.975 | 0.274 | 0.0863 | 0.095 | 0.735 | 0.679 | 0.299 | 0.0886 | 0.0831 | 0.593 | 0.769 | 0.49 | 0.123 | 0.0804 |
| COR-L 105 | 0.591 | 0.823 | 0.526 | 0.298 | 0.211 | 0.373 | 0.365 | 0.277 | 0.255 | 0.292 | 0.828 | 0.846 | 0.616 | 0.312 | 0.245 | 1.13 | 0.935 | 0.713 | 0.42 | 0.306 |
| NCI-H1734 | 0.619 | 0.688 | 0.489 | 0.26 | 0.194 | 1.14 | 0.986 | 0.792 | 0.241 | 0.186 | 0.18 | 0.239 | 0.17 | 0.147 | 0.125 | 0.946 | 0.956 | 0.644 | 0.309 | 0.215 |
| NCI-H3122 | 1.01 | 0.555 | 0.124 | 0.113 | 0.157 | 1.04 | 0.58 | 0.479 | 0.224 | 0.244 | 0.0893 | 0.0896 | 0.149 | 0.0746 | 0.0906 | 0.943 | 1.07 | 0.256 | 0.184 | 0.221 |
| CAL-12T | 0.535 | 0.411 | 0.149 | 0.129 | 0.141 | 0.647 | 0.708 | 0.379 | 0.228 | 0.156 | 0.858 | 0.44 | 0.446 | 0.217 | 0.102 | 0.775 | 0.746 | 0.423 | 0.246 | 0.228 |
| NCI-H2085 | 0.739 | 0.731 | 0.316 | 0.295 | 0.203 | 0.824 | 0.748 | 0.527 | 0.347 | 0.322 | 0.37 | 0.401 | 0.357 | 0.273 | 0.253 | 0.885 | 0.731 | 0.601 | 0.168 | 0.416 |
